# Key:
# Format in all cases: functional
# [1] = Cytotoxicity against human breast cancer cells after 48 hrs by sulphorhodamine B assay; details: Cancer cell lines
# [2] = Cytotoxicity against human prostate cancer cells after 48 hrs by sulphorhodamine B assay; details: Cancer cell lines
# [3] = Cytotoxicity against human ovarian cancer cells after 48 hrs by sulphorhodamine B assay; details: Cancer cell lines
# [4] = Cytotoxicity against human renal cancer cells after 48 hrs by sulphorhodamine B assay; details: Cancer cell lines
# [5] = Cytotoxicity against human melanoma cells after 48 hrs by sulphorhodamine B assay; details: Melanoma cell
# [6] = Cytotoxicity against human CNS cancer cells after 48 hrs by sulphorhodamine B assay; details: Cancer cell lines
# [7] = Cytotoxicity against human colon cancer cells after 48 hrs by sulphorhodamine B assay; details: Cancer cell lines
# [8] = Cytotoxicity against human non-small cell lung cancer cells after 48 hrs by sulphorhodamine B assay; details: Cancer cell lines
# [9] = Cytotoxicity against human leukemia cells after 48 hrs by sulphorhodamine B assay; details: Leukemia cell
# [10] = read-out: LC50 (the source's name)
smiles,measurement,setting,value
O=c1[nH]cc(F)c(=O)[nH]1 [FLUOROURACIL],GI50,[1],76.4 µM
same,TGI,[1],> 100 µM
same,GI50,[2],22.7 µM
same,TGI,[2],> 100 µM
same,GI50,[3],61.4 µM
same,TGI,[3],> 100 µM
same,CC50,[3]; [10],> 100 µM
same,GI50,[4],45.6 µM
same,TGI,[4],> 100 µM
same,GI50,[5],70.6 µM
same,TGI,[5],> 100 µM
same,CC50,[5]; [10],> 100 µM
same,TGI,[6],> 100 µM
same,GI50,[7],8.4 µM
same,TGI,[7],> 100 µM
same,CC50,[7]; [10],> 100 µM
same,GI50,[8],> 100 µM
same,TGI,[8],> 100 µM
same,TGI,[9],> 100 µM

# From ChEMBL document CHEMBL2375313, “Synthesis, in vitro antitumor evaluation and DNA-binding study of novel tetrahydroquinolines and some derived tricyclic and tetracyclic ring systems” (Eur J Med Chem, 2013)
